Here are results for 22 compounds from ChEMBL document CHEMBL5230155, “Recent contributions of quinolines to antimalarial and anticancer drug discovery research” (Eur J Med Chem, 2021).

As usually defined, the IC50 is the midpoint of a concentration-inhibition curve. One may read the GI50 as the concentration at which growth is held to half of that of the control. By EC50 is commonly meant the concentration that produces a half-maximal response.

Data set [1] can be described thus: Inhibition of PI3K (unknown origin). Also noted: species or system Homo sapiens.
In data set [2] the test system is Plasmodium falciparum. Nature of the data set: Antimalarial activity against CQ-sensitive Plasmodium falciparum 3D7. The data set is classed as functional, organism-based.
Data set [3] can be described thus: Cytotoxicity against african green monkey Vero cells. In kind it is toxicity, cell-based. Conditions: African green monkey (Chlorocebus sabaeus).
Data set [4] addresses T1, Tyrosine-protein kinase receptor UFO (Homo sapiens, UniProt P30530).
T1 sequence (P30530 whole entry): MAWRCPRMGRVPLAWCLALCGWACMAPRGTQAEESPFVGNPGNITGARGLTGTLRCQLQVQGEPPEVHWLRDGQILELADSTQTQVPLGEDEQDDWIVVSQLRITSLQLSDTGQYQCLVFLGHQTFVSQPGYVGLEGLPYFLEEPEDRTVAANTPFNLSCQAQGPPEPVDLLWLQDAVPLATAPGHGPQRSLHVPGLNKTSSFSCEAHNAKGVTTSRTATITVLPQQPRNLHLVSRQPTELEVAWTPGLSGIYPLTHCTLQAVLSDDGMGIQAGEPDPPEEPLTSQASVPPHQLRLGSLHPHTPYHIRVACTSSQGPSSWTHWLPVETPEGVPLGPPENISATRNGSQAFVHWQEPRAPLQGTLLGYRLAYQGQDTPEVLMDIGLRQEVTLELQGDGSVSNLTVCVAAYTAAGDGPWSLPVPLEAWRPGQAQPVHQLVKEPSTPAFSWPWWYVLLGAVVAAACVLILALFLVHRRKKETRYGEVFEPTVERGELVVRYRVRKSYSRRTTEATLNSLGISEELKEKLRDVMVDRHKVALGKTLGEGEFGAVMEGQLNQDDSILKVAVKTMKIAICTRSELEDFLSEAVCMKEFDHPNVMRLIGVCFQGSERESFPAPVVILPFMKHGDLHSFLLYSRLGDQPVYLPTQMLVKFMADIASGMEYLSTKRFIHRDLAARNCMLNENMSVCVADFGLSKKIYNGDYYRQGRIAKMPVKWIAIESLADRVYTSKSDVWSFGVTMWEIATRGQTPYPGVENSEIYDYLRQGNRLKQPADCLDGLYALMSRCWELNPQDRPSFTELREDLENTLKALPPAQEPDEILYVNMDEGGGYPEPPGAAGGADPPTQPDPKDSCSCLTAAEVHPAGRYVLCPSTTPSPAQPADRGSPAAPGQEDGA
Nature of the data set: Inhibition of AXL (unknown origin).

Data set [5] relates to A549. In words: Cytotoxicity against human A549 cells. In kind it is functional, cell-based.
For data set [6], the system named is RPMI-8226. In words: Induction of apoptosis in human RPMI-8226 cells assessed as fold increase in cytochrome c level. In kind it is functional.
Data set [7] has as its system HCT-116. Nature of the data set: Cytotoxicity against human HCT-116 cells. In kind it is functional, cell-based.
The test system of data set [8] is RPMI-8226. Nature of the data set: Induction of apoptosis in human RPMI-8226 cells assessed as fold increase in caspase-3 level. The data set is classed as functional.
The test system of data set [9] is RPMI-8226. Nature of the data set: Cytotoxicity against human RPMI-8226 cells. In kind it is functional, cell-based.
The subject of data set [10] is SNU-423. Nature of the data set: Antiproliferative activity against human SNU-423 cells. The data set is classed as functional, cell-based.
In data set [11] the test system is RT-112. In words: Antiproliferative activity against human RT-112 cells. In kind it is functional, cell-based.
Data set [12] concerns MDA-MB-453. Nature of the data set: Antiproliferative activity against human MDA-MB-453 cells. The data set is classed as functional, cell-based.
Data set [13] has as its system Plasmodium falciparum. Nature of the data set: Antimalarial activity against multidrug resistant Plasmodium falciparum Dd2. The data set is classed as functional, organism-based.
Data set [14] has as its system Plasmodium falciparum. In words: Antimalarial activity against multidrug resistant Plasmodium falciparum K1. In kind it is functional, organism-based.
In data set [15] the test system is Plasmodium falciparum. Nature of the data set: Antimalarial activity against Plasmodium falciparum 3D7. The data set is classed as functional, organism-based.

In the case of `CC(=O)c1ccc(C#Cc2c(C3CC3)nc3ccccc3c2-c2ccc(F)cc2)cc1`, the IC50 in [1] amounted to 0.45 µM.
Take `O=C(Cn1cc(-c2ccccc2)nn1)NCCCNc1ccnc2cc(Cl)ccc12`: the IC50 in data set [2] was 0.0387 µM; in data set [3], more than 5 µM.
In [1], `O=C(O)c1cc(C#Cc2c(C3CC3)nc3ccccc3c2-c2ccc(F)cc2)ccc1Br` showed an IC50 of 0.45 µM.
For the compound `COc1cc2c(Oc3ccc(NS(=O)(=O)c4cc(F)ccc4F)cc3F)ccnc2cc1OCCCN1CCCC(C)C1` (configuration not stated), inhibition in data set [4] was half-maximal at 0.021 µM (IC50).
Still for that read-out and setting: next, `COc1cc2nccc(Oc3ccc(NC(=O)Nc4ccc(F)cc4F)c(F)c3)c2cc1OC`: 0.36 µM; `COc1cc2c(Oc3ccc(NS(=O)(=O)c4ccccc4OC(F)(F)F)cc3F)ccnc2cc1OCCCN1CCN(C)CC1`: 0.027 µM.
Consider `CNS(=O)(=O)Nc1nccc(Cc2c(C)c3ccc(Oc4ncccn4)cc3oc2=O)c1F` [AVUTOMETINIB], for which growth in data set [5] was halved (GI50) at 3.23 µM.
With `Cc1ccc2nc(SCc3ccccc3)c(/C=[N+](\[O-])c3ccccc3)cc2c1`, the figures for the “fold change (FC)” value in [6] and in data set [8] were 4 and 12, respectively. The half-inhibitory concentration (IC50) in data set [7] and in [9] was 0.45 µM each time.
Regarding `[O-]/[N+](=C\c1cc2ccccc2nc1SCc1ccccc1)c1ccccc1`, the “fold change (FC)” value came to 4 in [6] and 12 in data set [8]. The half-inhibitory concentration (IC50) in [7] and in data set [9] was 0.45 µM in each case.
`CSc1nc2ccccc2cc1/C=[N+](\[O-])c1ccccc1`: the “fold change (FC)” value was found to be 4 in [6] and 12 in data set [8]. Moreover, the IC50 in data set [7] and in [9] was 0.45 µM in each case.
For `COc1cc(N(CCCSC(=S)N2CCN(CCO)CC2)S(=O)(=O)c2cccc3cccnc23)cc(OC)c1OC`, the half-maximal inhibitory concentration (IC50) in [10], in [11] and in data set [12] was 0.7 µM throughout.
`COC[C@H]1OC(=O)c2coc3c2[C@@]1(C)C1=C(C3=O)[C@@H]2CCC(=O)[C@@]2(C)C[C@H]1OC(C)=O` [WORTMANNIN]: the IC50 in [1] was found to be 0.75 µM.
As to `C#CCCCN(CCNc1ccnc2cc(Cl)ccc12)C(=O)CCC(=O)O[C@@H]1O[C@@H]2O[C@@]3(C)CC[C@H]4[C@H](C)CCC([C@H]1C)[C@@]24OO3` (some centres not stated), the concentration giving a half-maximal response (EC50) in data set [13], in [14] and in data set [15] was 0.00078 µM throughout.
In [1], `CC(=O)c1cccc(C#Cc2c(C3CC3)nc3ccccc3c2-c2ccc(F)cc2)c1` returned an IC50 of 0.45 µM.
The compound `COc1cc2c(Oc3ccc(NS(=O)(=O)c4ccccc4C(F)(F)F)cc3F)ccnc2cc1OCCCN1CCC(C)CC1` showed an IC50 in data set [4] of 0.021 µM.
Still for that read-out and setting: in the case of `COc1cc2c(Oc3ccc(NS(=O)(=O)c4c(F)cccc4F)cc3F)ccnc2cc1OCCCN1CCN(C)CC1` it was 0.027 µM.
`NC(=O)c1cnc2ccc(-c3cnc4ccccc4c3)cc2c1Nc1ccc(N2CCNCC2)c(C(F)(F)F)c1`: the GI50 in data set [5] and in data set [7] was 2.8 µM each time.
In the case of `C[C@@H]1CCC2[C@@H](C)[C@H](OC(=O)CCC(=O)NCCNc3ccnc4cc(Cl)ccc34)O[C@@H]3O[C@@]4(C)CC[C@@H]1[C@@]23OO4` (some centres not stated), the EC50 in [13], in [14] and in data set [15] was 0.00078 µM in each case.
In the case of `C#CCCCC(C(=O)NCCOC(=O)CCC(=O)O[C@@H]1O[C@@H]2O[C@@]3(C)CC[C@H]4[C@H](C)CCC([C@H]1C)[C@@]24OO3)c1ccnc2cc(Cl)ccc12` (some centres not stated), the 50% effective concentration (EC50) in [13], in [14] and in data set [15] was 0.00078 µM throughout.
For the compound `COc1cc(N(CCCSC(=S)N2CCN(C)CC2)S(=O)(=O)c2cccc3cccnc23)cc(OC)c1OC`, the IC50 in data set [10], in data set [11] and in data set [12] was 0.7 µM throughout.
As for `C[C@@H]1CC[C@H]2[C@@H](C)C(=O)O[C@@H]3O[C@@]4(C)CC[C@@H]1[C@]32OO4` [ARTEMISININ], the EC50 in data set [13], in data set [14] and in data set [15] was 0.0054 µM throughout.
`CCN1CCN(C(=S)SCCCN(c2cc(OC)c(OC)c(OC)c2)S(=O)(=O)c2cccc3cccnc23)CC1`: the IC50 in data set [10], in data set [11] and in data set [12] was 0.7 µM each time.
